{"source": "ChEMBL document CHEMBL1157385", "about": "“(Iso)-quinoline alkaloids from fungal fruiting bodies of Cortinarius subtortus” (J Nat Prod, 2008)", "key": {"[1]": {"system": "Colletotrichum coccodes", "test": "Growth inhibition of Colletotrichum coccodes (Wallr.) S. Hughes at 100 uM after 6 days", "assay_type": "functional, organism-based", "details": "144 h"}, "[2]": {"system": "Radical scavenging activity", "test": "Antioxidant activity assessed as DPPH free radical scavenging activity at 1 mM", "assay_type": "functional"}}, "data": [{"smiles": "Oc1cccc2cccnc12", "note": "[QUINOSOL]", "values": [{"measurement": "EC50", "setting": "[1]", "result": 0.19, "unit": "µM"}]}, {"smiles": "O=C(O)c1cc(O)cc2c(=O)[nH]ccc12", "values": [{"measurement": "Activity", "setting": "[2]", "result": 21, "unit": "%"}]}, {"smiles": "O=C1O[C@H]([C@@H](O)CO)C(O)=C1O", "note": "[ASCORBIC ACID]", "values": [{"measurement": "EC50", "setting": "[2]", "result": 45, "unit": "µM"}]}, {"smiles": "O=C(O)c1cc(O)cc2cccnc12", "values": [{"measurement": "inhibition at 100 µM", "setting": "[1]", "result": 71, "unit": "%"}, {"measurement": "Activity", "setting": "[2]", "result": 15, "unit": "%"}]}, {"smiles": "Nc1ccnc2c(C(=O)O)cc(O)cc12", "values": [{"measurement": "Activity", "setting": "[2]", "result": 12, "unit": "%"}]}]}
